From US12522596B2, “Compounds as GLP-1R agonists” (Terns Pharmaceuticals, Inc., priority 2021, dated 2026)

Columns and labels:
[1] = Metabolic stability in human hepatocytes; type: in vitro ADME; conditions: cryopreserved hepatocytes; human hepatocytes, 1 μM
Description: (§1) Test compounds were incubated in rat and human hepatocytes and stability was assessed from the substrate […] approach. Test compounds were dissolved in dimethyl sulfoxide (DMSO) to create a 10 mM Stock, and then further diluted to create a 1000× Working Stock of 1 mM with DMSO in 96-well plates for test compounds and the positive control (midazolam). Vials containing cryopreserved hepatocytes were removed from the liquid nitrogen tank and immediately immersed in a 37° C. water bath. The vials were shaken gently until the contents had thawed and were then immediately emptied into 48 mL of pre-warmed HT Medium in a 50 mL conical tube. Cells remaining in the vial were resuspended with 1.0 mL of pre-warmed HT Medium and added to the conical tube. The tube was capped and then gently inverted several times to resuspend the hepatocytes. The cell suspension was centrifuged at 50×g at room temperature for 5 minutes and the supernatant discarded. The cell pellet was loosened by gently swirling the centrifuge tube and was re-suspended in 4 mL of warm Dulbecco's Modified Eagle medium (DMEM). Cell density was determined by a cell counter by Nexcelom, and DMEM medium was added to obtain a target density of 1×10^6 cells/mL. The assay was carried out in 96-well microtiter plates. Test Compounds were incubated at 1 μM with 1×10^6 cells/mL hepatocytes in DMEM for 0, 30, 60, 120 and 240 minutes. The incubation was carried out with gentle shaking at 37° C. under a humid atmosphere of 95% air/5% CO2. The volume of the incubation mixture was 37 μL with a final 0.1% DMSO. At each of the time points, the incubation was stopped by adding 150 μL quenching solution (100% acetonitrile, 0.1% formic acid containing bucetin as an internal standard for positive ESI mode). Subsequently, the mixtures were vortexed for 20 min and centrifuged at 4,000 RPM at 10° C. The supernatant (80 μL) was transferred to a clean 96-well plate and analyzed by LC-MS/MS. Midazolam at 1 μM with a final 0.1% DMSO was included as a positive control to verify assay performance. The percent parent remaining, intrinsic and predicted hepatic clearance and t1/2 were calculated. All samples were analyzed by LC-MS/MS using an AB Sciex API 4000 instrument, coupled to a Shimadzu LC-20AD LC Pump system. Separation was achieved using a Waters Atlantis T3 dC18 reverse phase HPLC column (20 mm×2.1 mm) at a flow rate of 0.5 mL/min. The mobile phase consisted of 0.1% formic acid in water (solvent A) and 0.1% formic acid in 100% acetonitrile (solvent B). Elution conditions are detailed below.
(§2) The ion optics of each test compound were optimized for their declustering potential (DP), […] (CE), collision-cell exit potential (CXP) and used in a selected ion monitoring experiment in the positive ion mode. The peak area ratio of each test compound to internal standard was then evaluated for stability. The extent of metabolism was calculated based on the disappearance of the test compound, compared to its initial concentration. The initial rates of clearance of the test compound were calculated using the linear regression plot of semi-log % remaining of the compound versus time. The elimination rate constant (k) of the linear regression plot was then used to determine t1/2 and the intrinsic clearance (CLint) using the following formula, where Chepatocyte (million cells/mL) is the cell density of the incubation:
(§3) The predicted hepatic clearance (CLhep) was calculated using the well stirred method with the following formula with CLint(in vivo) normalized based on liver weight: […]
(§4) The relevant physiological parameters of liver weight, blood flow, and hepatocellularity for various species are listed below: […]

[2] = test system: rat hepatocytes; experiment: Metabolic stability in rat hepatocytes; type: in vitro ADME
Description: as §1, §2, §3, §4

[3] = Metabolic stability in rat hepatocytes; type: in vitro ADME; conditions: cryopreserved hepatocytes, 1 μM
Description: as §1, §2, §3, §4

[4] = target: T1, human GLP-1R receptor (Homo sapiens, UniProt P43220); experiment: GLP-1R low expression cell assay (cAMP TR-FRET, CHO-K1_hGLP-1Rlow_clone10); type: cell-based; conditions: CHO-K1_hGLP-1Rlow_clone10 cells
T1 construct: expressed in transfected cells
Description: Stable cell lines expressing high and low GLP-1R surface expression were generated in CHO-K1 cells transfected (Fugene 6) with a puromycin selectable DNA plasmid encoding human GLP-1R receptor (accession number: NM_002062.5) under control of an EF1A promoter. Transfected cells were seeded into 24-well plates (9,000 cells/well) containing complete medium and incubated in a humidified incubator at 37° C. with 5% carbon dioxide. After overnight incubation, medium was replaced with complete medium supplemented with puromycin (6 μg/mL) and refreshed every 2-3 days to select for stably transfected cells. Individual pools of selected cells were expanded prior to analysis for responsiveness to GLP-1 control peptide using a TR-FRET assay to detect cAMP (LANCE Ultra CAMP Assay, Perkin Elmer). Briefly, cells were collected in Versene solution, plated in 384-well plates (1,000 cells/well) and combined with serially diluted GLP-1R control peptide (10 nL) using an acoustic dispenser (ECHO). Plates were incubated for 30 minutes at 25° C. prior to the addition of EU-CAMP tracer (5 μL) and Ulight-anti-cAMP (5 μL) reagents to each well, followed by 15 minutes incubation at 25° C. TR-FRET signal was detected using an En Vision Multimode Plate Reader (excitation=320 nm; emission=615 and 655 nm). Dose-response curves were used to generate EC50 values as a measure of responsiveness to the GLP-1R control peptide. Selected cell lines were monitored for responsiveness over multiple passages to ensure stability. […] Briefly, GLP-1R expression was analyzed by flow cytometry using a fluorescein-labeled Exendin-4 peptide fluorescent probe (FLEX). Cells were harvested in Versene solution and washed 3-times with PBS+0.5% BSA before incubation with FLEX reagent (10 μM) for 2 hours at room temperature. After incubation, cells were washed 3-times in PBS+0.5% BSA before final resuspension in PBS prior to analysis by flow cytometry to measure FLEX mean fluorescence intensity (MFI) as a measure of GLP-1R expression on the cell surface.
For compound testing in the CHO-K1_hGLP-1Rlow_clone10 cell line, cells were seeded in 384-well plates (1,000 cells/well). Test compounds were serially diluted in DMSO (10-point, 3-fold dilution), added to wells using an ECHO dispenser (10 nL/well) and plates were centrifuged for 1 min and agitated for 2 min at room temperature prior to 30-minute incubation at 25° C. After incubation, Eu-CAMP (5 μL) and Ulight-anti-cAMP (5 μL) reagents were added to each well, followed by centrifugation for 1 minute, agitation for 2 minutes at room temperature, and final incubation of the plates at 25° C. for 15 minutes. Plates were read using an EnVision microplate reader (excitation=320 nm; emission=615 and 655 nm). Dose-response curves were generated from duplicate wells based on percent activation calculated relative to a control GLP-1 peptide agonist that was run in parallel. EC50 values were determined by fitting percent activation as a function of compound concentration using the Hill equation (XLfit).
Stable cell lines expressing high and low GLP-1R surface expression were generated in CHO-K1 cells transfected (Fugene 6) with a puromycin selectable DNA plasmid encoding human GLP-1R receptor (accession number: NM_002062.5) under control of an EF1A promoter. Transfected cells were seeded into 24-well plates (9,000 cells/well) containing complete medium and incubated in a humidified incubator at 37° C. with 5% carbon dioxide. After overnight incubation, medium was replaced with complete medium supplemented with puromycin (6 μg/mL) and refreshed every 2-3 days to select for stably transfected cells. Individual pools of selected cells were expanded prior to analysis for responsiveness to GLP-1 control peptide using a TR-FRET assay to detect cAMP (LANCE Ultra CAMP Assay, Perkin Elmer).

[5] = Rat pharmacokinetics, oral dosing; type: in vivo, Sprague-Dawley rats; conditions: for AUC(0-t) / Cmax / half-life: male, Sprague-Dawley, rat plasma, 3 mg/kg PO (0.6 mg/mL); for PK properties relative to Reference Compound A: dosed orally
Description: Oral dosing: Compounds were formulated at 0.3 mg/mL or 0.6 mg/mL in a solution comprising 5% polyethylene glycol 400 and 95% (12% (w/v) sulfobutyl-β-cyclodextrin in water) (v/v). Formulated compounds were administered to male, 7-11 week old Sprague-Dawley rats by oral gavage at a dose of 3 mg/kg.
Sample collection: Blood collections of about 0.2 mL per time point were performed from jugular vein or other suitable site of each animal, into pre-chilled commercial EDTA-K2 tubes and placed on wet ice until centrifugation. Blood samples were processed for plasma by centrifugation at approximately 4° C., 3,200 g for 10 min. Plasma was collected and transferred into pre-labeled 96 well plate or polypropylene tubes, quick frozen over dry ice and kept at −60° C. or lower until LC-MS/MS analysis.
Data analysis: Plasma concentration versus time data was plotted in graph and analyzed by non-compartmental approaches using the Phoenix WinNonlin 6.3 software program. Related PK parameters were calculated according to dosing route, e.g., CL, Vdss and C0 for intravenous administration, Cmax, Tmax or % F for extravascular administration, and T1/2, AUC(0-t), AUC(0-inf), MRT(0-t), MRT(0-inf) for all routes.

T1 sequence (P43220 24-463): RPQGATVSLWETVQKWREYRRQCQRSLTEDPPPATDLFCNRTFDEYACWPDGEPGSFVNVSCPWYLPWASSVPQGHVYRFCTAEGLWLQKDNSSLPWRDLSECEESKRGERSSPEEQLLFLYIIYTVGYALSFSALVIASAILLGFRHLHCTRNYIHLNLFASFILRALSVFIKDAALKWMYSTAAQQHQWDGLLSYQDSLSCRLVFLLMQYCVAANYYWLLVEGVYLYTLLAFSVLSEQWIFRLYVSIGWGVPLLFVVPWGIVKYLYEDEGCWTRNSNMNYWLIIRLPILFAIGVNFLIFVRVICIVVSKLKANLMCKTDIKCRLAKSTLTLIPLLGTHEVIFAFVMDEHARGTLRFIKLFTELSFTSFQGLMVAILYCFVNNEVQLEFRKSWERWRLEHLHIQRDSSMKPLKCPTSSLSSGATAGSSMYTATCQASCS

Structure (SMILES)	CLint scaled at 1 μM [1] [mL/min/kg]	half-life at 1 μM [1] [h]	CLint relative to reference standard [2]	Half-life relative to reference [2]	CLint scaled at 1 μM [3] [mL/min/kg]	half-life at 1 μM [3] [h]	EC50 [4] [µM]	AUC(0-t) ([5]; rat, plasma, po, 3 mg/kg) [ng·h/mL]	Cmax ([5]; rat, plasma, po, 3 mg/kg) [ng/mL]	half-life ([5]; rat, plasma, po, 3 mg/kg) [h]	PK properties relative to Reference Compound A ([5]; rat)	AUC(0-t) [5] [ng·h/mL]	half-life [5] [h]
[2H]C([2H])(Oc1cccc(C2CCN(Cc3nc4ccc(C(=O)O)cc4n3Cc3cncs3)CC2)n1)c1ccc(C#N)cc1F [Compound 27]	15.6 ± 0.7	2.57 ± 0.117	significantly lower	significantly higher	29 ± 0.58	1.91 ± 0.0383	0.0086	617 ± 248	478 ± 186	1.37 ± 0.18	similarly improved PK properties	–	–
N#Cc1cnc(COc2cccc(C3CCN(Cc4nc5ccc(C(=O)O)cc5n4Cc4cncs4)CC3)n2)c(F)c1 [Compound 29]	15.3 ± 0.76	2.61 ± 0.13	significantly lower	significantly higher	35.8 ± 1.42	1.55 ± 0.0615	0.0278	411 ± 32	299 ± 62.9	1.54 ± 0.46	similarly improved PK properties	–	–
N#Cc1ccc(COc2cccc(C34CCN(Cc5nc6ccc(C(=O)O)cc6n5Cc5cncs5)CC3C4)n2)c(F)c1 (centres unmarked) [Compound 14]	20.1 ± 0.59	1.99 ± 0.0583	significantly increased	–	92.8 ± 3.3	0.597 ± 0.0212	0.0301	–	581 ± 100	–	similarly improved PK properties	582 ± 45	3.14 ± 1.88
